Experimental data reported in BindingDB's records for PubMed 34843914 (China Pharmaceutical University, 2022).

Target: Poly [ADP-ribose] polymerase 1 (Homo sapiens, UniProt P09874)
Test: Inhibition of PARP1 (unknown origin)

Poly [ADP-ribose] polymerase 1, sequence (P09874 whole entry): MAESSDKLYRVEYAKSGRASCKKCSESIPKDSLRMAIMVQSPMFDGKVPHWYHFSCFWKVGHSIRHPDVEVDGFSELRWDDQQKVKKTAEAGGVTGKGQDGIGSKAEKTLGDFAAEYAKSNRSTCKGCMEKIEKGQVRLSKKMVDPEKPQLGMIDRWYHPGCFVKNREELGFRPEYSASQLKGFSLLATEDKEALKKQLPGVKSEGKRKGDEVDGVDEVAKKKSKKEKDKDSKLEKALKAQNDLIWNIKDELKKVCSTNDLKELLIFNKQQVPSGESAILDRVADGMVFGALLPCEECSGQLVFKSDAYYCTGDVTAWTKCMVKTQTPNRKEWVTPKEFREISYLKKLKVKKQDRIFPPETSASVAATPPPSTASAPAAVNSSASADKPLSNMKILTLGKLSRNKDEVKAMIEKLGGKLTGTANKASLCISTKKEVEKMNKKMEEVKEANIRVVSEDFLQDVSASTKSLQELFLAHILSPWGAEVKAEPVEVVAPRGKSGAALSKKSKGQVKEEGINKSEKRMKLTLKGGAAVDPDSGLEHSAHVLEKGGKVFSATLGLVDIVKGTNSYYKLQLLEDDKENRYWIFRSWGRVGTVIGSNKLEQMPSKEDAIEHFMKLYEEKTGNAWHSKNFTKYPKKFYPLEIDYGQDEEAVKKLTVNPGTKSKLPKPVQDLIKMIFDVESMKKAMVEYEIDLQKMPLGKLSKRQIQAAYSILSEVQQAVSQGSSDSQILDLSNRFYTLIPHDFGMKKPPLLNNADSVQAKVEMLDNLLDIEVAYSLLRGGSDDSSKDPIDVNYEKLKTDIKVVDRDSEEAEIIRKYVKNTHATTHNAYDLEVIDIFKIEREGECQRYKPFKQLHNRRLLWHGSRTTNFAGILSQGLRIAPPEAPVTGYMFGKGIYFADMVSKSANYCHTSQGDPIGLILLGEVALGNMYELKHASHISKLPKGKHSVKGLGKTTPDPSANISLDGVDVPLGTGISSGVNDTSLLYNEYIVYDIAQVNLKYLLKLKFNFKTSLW

- IC50: 259 nM
Structure (SMILES): O=c1cc(O)cc2oc(-c3ccc(O)c(-c4c(O)cc(O)c5c(=O)cc(-c6ccc(O)cc6)oc45)c3)cc(O)c1-2
